Data taken from patent publication EP0741709B1, “AROMATIC 2-AMINO-IMIDAZOLE DERIVATIVES AS ALPHA-2A ADRENOCEPTOR AGONISTS” (Allergan Sales, Inc., priority 1994, dated 1995).

target: α1 receptors; assay: Receptor binding assay, [3H]prazosin, human cerebral cortex (HCC) membranes; conditions: 22°C, 30 minutes, read-out: Ki (nM) α1 human brain
Procedure: Tissue preparation: Membrane suspensions were prepared from human cerebral cortex (HCC, for α1 receptors) obtained from the UCI Organ and Tissue Bank. Briefly, tissues (1g) were homogenized in 25 mL of ice-cold 5 mM tris, pH 7.4 with a Polytron homogenizer for 30 sec at setting #7, and centrifuged for 10-12 minutes at 300 x g a 4°C. The supernatant was filtered through 2 layers of gauze and diluted 1:2 with 50 mM Tris-HCl buffer, pH 7.4, then centrifuged at 49,000 x g for 20 minutes. The pellet fraction was washed 3 times (resuspended in Tris-HCl buffer and centrifuged for 20 minutes at 49,000 x g). The pellet was then stored at -80°C until the binding assay.
Binding Studies: The radioligands [^3H]rauwolscine (specific activity 80 Ci/mmol) and [^3H]prazosin (specific activity 76 Ci/mmol) were obtained from New England Nuclear, Boston, MA. Frozen membrane pellet was resuspended in 25 mM glycine/glycine, pH 7.5 and incubated with radioligand under the following conditions: CHO-C10, CHO-RNG, CHO-C4-[^3H]rauwolscine, 22°C, 30 minutes; RKC-[^3H]rauwolscine, 0°C, 120 minutes; and, HCC-[^3H]prazosin, 22°C, 30 minutes in a final volume of 500 ul. At the end of the incubation period, the samples were filtered through glass filters (Whatman GF/B) in a 96 well cell harvester and rapidly washed four times with 4 mL of iced-cold 50 mM Tris-HCl buffer. The filters were then oven dried and transferred to scintillation vials containing 10 mL of Beckman's Ready Protein® scintillation cocktail for counting. Specific binding defined by 10 uM phentolamine for competition studies were as follows: 2.4 nM [^3H]brimonidine-RbICB 62%; 2.4 nM [^3H]rauwolscine-RbICB 75%; 2 nM [^3H]rauwolscine-RbKc 88%; 0.3 nM [^3H] rauwolscine-CHO-C10 99%; 0.4 nM [^3H]rauwolscine-CHO-RNG 99%, 0.3 nM [^3H]prazosin 87%; and 1 nM [^3H]rauwolscine-CHO-C4 90%. Protein concentrations were determined with a protein assay kit from Bio Rad. Binding isotherms, equilibrium dissociation and affinity constants were analyzed and determined by the non-linear least squares curve fitting programs EBDA (BioSoft) or AccuFit Competition/Saturation by Beckman.
The radioligands [^3H)rauwolscine (specific activity 80 Ci/mmol) and [^3H]prazosin (specific activity 76 Ci/mmol) were obtained from New England Nuclear, Boston, MA. Frozen membrane pellet was resuspended in 25 mM glycine/glycine, pH 7.4 and incubated with radioligand under the following conditions: CHO-C10, CHO-RNG, CHO-C4-[^3H]rauwolscine, 22°C, 30 min.; and, HCC-[^3H]prazosin, 22°C, 30 minutes in a final volume of 500 ul. At the end of the incubation period, the samples were filtered through glass fiber filters (Whatman GF/B) in a 96 well cell harvester and rapidly washed four times with 4 mL of iced-cold 50 mM Tris-CHl buffer. The filters were then oven dried and transferred to scintillation vials containing 5 mL of Beckman's Ready Protein® scintillation cocktail for counting. Specific binding defined by 10 uM phentolamine for competition studies were as follows: 0.3 nM[^3H] rauwolscine-CHO-C10 99%; 0.4 nM [^3H]rauwolscine-CHO-RNG 99%, and 0.3 nM [^3H] prazosin-HCC 87%. Protein concentrations were determined with a protein assay kit from Bio Rad. Binding isotherms, equilibrium dissociation and affinity constants were analyzed and determined by the non-linear least squares curve fitting programs AccuFit Competition/Saturation by Beckman.

In order of rising Ki:
1. Cc1c(Nc2ncc[nH]2)ccc2c1OCCO2  2150 nM
2. c1cc2c(c(Nc3ncc[nH]3)c1)CCCC2  4980 nM
3. Clc1cccc(Cl)c1Nc1ncc[nH]1  5940 nM
4. COc1ccc(Nc2ncc[nH]2)c(C)c1  7610 nM
5. Brc1ccccc1Nc1ncc[nH]1  9980 nM
6. Cc1ccccc1Nc1ncc[nH]1  10600 nM
7. Cc1c(Nc2ncc[nH]2)ccc2c1NCCO2  14800 nM
8. Clc1ccccc1Nc1ncc[nH]1  23200 nM
9. Cc1c(Nc2ncc[nH]2)ccc2nccnc12  30600 nM
10. c1ccc(Nc2ncc[nH]2)cc1  67500 nM
11. Brc1c(Nc2ncc[nH]2)ccc2nccnc12  100000 nM
